Source: a melting point compilation (Tetko et al.)

Row | melting point | SMILES
1 | 154 to 156 °C | COc1ccc(C=C(CC(=O)O)c2nc3ccccc3s2)cc1
2 | 106 to 108 °C | CCn1c(=O)cc(N)n(Cc2ccccc2)c1=O
3 | 177 to 181 °C | NNC(=O)Cc1nc2ccccc2[nH]1
4 | 263 to 265 °C | NNc1ncnc2sc(-c3ccccc3)cc12

Further lines, the compound ahead of its results:

Row | SMILES | melting point
5 | CC(N)c1ccc(N2CCCC2=O)cc1 (configuration not stated) | 62 to 64 °C
6 | O=C(O)C=Cc1ccc([N+](=O)[O-])o1 | 230 to 232 °C
7 | O=C(O)c1ccc2c(c1)COCO2 | 189 to 191 °C
8 | CCOC(=O)C(=O)c1c(C)[nH]c2ccccc12 | 127 to 129 °C
9 | Cc1cccc2[nH]cc(CCN)c12 | 108 to 110 °C
10 | CC(N)C(O)c1ccc(F)cc1 (configuration not stated) | 87 to 89 °C
11 | NS(=O)(=O)Cc1ccc(Br)cc1 | 191 to 193 °C
12 | O=C(O)C1(c2cccc(F)c2)CCC1 | 67 to 69 °C
